Reference: ChEMBL document CHEMBL1201862, “PubChem BioAssay data set” (2004)
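Each compound was tested at five concentrations against cells in 96-well plates for 48 hours. At the GI50, growth is halved.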 Calls of active or inactive are those of the source. Cut-off read from the data, not from the text of the source: active = GI50 up to about 1.1 µM and inactive = higher.

Key:
Assay in all cases: growth of human tumour cells (NCI), 48 h
ACHN = tested on: ACHN
CCRF-CEM = tested on: CCRF-CEM
HL-60 = tested on: HL-60
HOP-62 = tested on: HOP-62
HOP-92 = tested on: HOP-92
M14 = tested on: M14
MOLT-4 = tested on: MOLT-4
NCI-H23 = tested on: NCI-H23
OVCAR-3 = tested on: OVCAR-3
OVCAR-8 = tested on: OVCAR-8
SF-268 = tested on: SF-268
SF-539 = tested on: SF-539
SK-MEL-28 = tested on: SK-MEL-28
SK-MEL-5 = tested on: SK-MEL-5
SK-OV-3 = tested on: SK-OV-3
NCI-H522 = tested on: NCI-H522

Measured: GI50

CCOC(=O)C=C1CCN(C(=O)c2ccccc2)CC1
inactive: ACHN > 100 µM | CCRF-CEM > 100 µM | HL-60 > 100 µM | HOP-62 > 100 µM | HOP-92 > 100 µM | M14 > 100 µM | MOLT-4 > 100 µM | NCI-H23 > 100 µM | OVCAR-3 > 100 µM | OVCAR-8 > 100 µM | SF-268 > 100 µM | SF-539 > 100 µM | SK-MEL-28 > 100 µM | SK-MEL-5 > 100 µM | SK-OV-3 > 100 µM

Cc1cc(N(CCC#N)S(=O)(=O)c2ccccc2)ccc1/C=C1\N=C(c2ccc(Cl)cc2)OC1=O
inactive: ACHN > 100 µM | CCRF-CEM 55.5 µM | HL-60 > 100 µM | HOP-92 > 100 µM | M14 > 100 µM | MOLT-4 > 100 µM | NCI-H23 > 100 µM | OVCAR-3 > 100 µM | OVCAR-8 > 100 µM | SF-268 > 100 µM | SF-539 > 100 µM | SK-MEL-28 > 100 µM | SK-MEL-5 > 100 µM

COC(=O)C(C(=O)C(=O)Nc1ccccc1OC)c1csc(-n2nc(-c3ccccc3)cc2-c2ccccc2)n1 (stereo unspecified)
inactive: ACHN > 100 µM | CCRF-CEM > 100 µM | HL-60 > 100 µM | HOP-62 > 100 µM | HOP-92 > 100 µM | M14 > 100 µM | MOLT-4 65.2 µM | NCI-H23 > 100 µM | NCI-H522 > 100 µM | OVCAR-3 > 100 µM | OVCAR-8 > 100 µM | SF-268 > 100 µM | SK-OV-3 > 100 µM

COc1ccc2c(c1)N1CCc3cc(OC)c(OC)cc3C1C2 (stereo unspecified)
inactive: ACHN 53 µM | CCRF-CEM 61 µM | HL-60 26.2 µM | HOP-62 > 100 µM | HOP-92 79.8 µM | MOLT-4 26 µM | NCI-H23 50.1 µM | NCI-H522 23.7 µM | OVCAR-8 > 100 µM | SF-268 > 100 µM | SF-539 > 100 µM | SK-MEL-28 89.1 µM | SK-OV-3 > 100 µM

O=C1[C@@H]2C(c3ccncc3)=NO[C@@H]2C(=O)N1c1ccc(Cc2ccc(N3C(=O)[C@H]4C(c5ccncc5)=NO[C@H]4C3=O)cc2)cc1
inactive: ACHN > 100 µM | CCRF-CEM > 100 µM | HL-60 > 100 µM | HOP-62 > 100 µM | HOP-92 > 100 µM | M14 > 100 µM | MOLT-4 > 100 µM | NCI-H23 > 100 µM | OVCAR-3 > 100 µM | OVCAR-8 > 100 µM | SF-268 > 100 µM | SF-539 > 100 µM | SK-MEL-28 > 100 µM | SK-MEL-5 > 100 µM | SK-OV-3 > 100 µM

COC(=O)N/N=C(\C)C(CN1CCCCC1)C(C1=C(O)c2ccccc2OC1)c1ccccc1 (stereo unspecified)
inactive: ACHN > 100 µM | CCRF-CEM > 100 µM | HL-60 > 100 µM | HOP-62 > 100 µM | M14 > 100 µM | MOLT-4 > 100 µM | NCI-H23 > 100 µM | NCI-H522 > 100 µM | OVCAR-3 > 100 µM | OVCAR-8 > 100 µM | SF-268 > 100 µM | SF-539 > 100 µM | SK-MEL-28 > 100 µM | SK-MEL-5 > 100 µM | SK-OV-3 > 100 µM

Nc1ccn([C@@H]2C[C@H](CO)[C@@H](O)[C@H]2O)c(=O)n1
inactive: ACHN > 57.7 µM | HL-60 > 57.7 µM | HOP-62 > 57.7 µM | M14 > 57.7 µM | MOLT-4 > 57.7 µM | NCI-H522 > 57.7 µM | OVCAR-3 > 57.7 µM | OVCAR-8 > 57.7 µM | SF-268 > 57.7 µM | SF-539 > 57.7 µM | SK-MEL-28 > 57.7 µM | SK-MEL-5 > 57.7 µM | SK-OV-3 > 57.7 µM

O=C(O)Cn1c(=O)[nH]c(=O)c2[nH]cnc21
inactive: ACHN > 100 µM | CCRF-CEM > 100 µM | HL-60 > 100 µM | HOP-62 > 100 µM | M14 > 100 µM | MOLT-4 > 100 µM | NCI-H23 > 100 µM | NCI-H522 > 100 µM | OVCAR-3 > 100 µM | OVCAR-8 > 100 µM | SF-268 > 100 µM | SF-539 > 100 µM | SK-MEL-28 > 100 µM | SK-MEL-5 > 100 µM | SK-OV-3 > 100 µM

COc1cc2c(c(OC)c1)C1(CC(CC#N)C2)SCCS1 (stereo unspecified)
inactive: ACHN > 100 µM | CCRF-CEM > 100 µM | HL-60 > 100 µM | HOP-62 > 100 µM | M14 > 100 µM | MOLT-4 > 100 µM | OVCAR-3 > 100 µM | OVCAR-8 > 100 µM | SF-268 > 100 µM | SF-539 > 100 µM | SK-MEL-28 > 100 µM | SK-MEL-5 62.2 µM | SK-OV-3 > 100 µM
active: NCI-H522 < 0.01 µM

OC(CCl)CN1CC[N+]2(CC1)CC[N+]1(CCN(CC(O)CCl)CC1)CC2 (stereo unspecified) [PROSPIDIUM CHLORIDE]
inactive: ACHN > 50 µM | CCRF-CEM > 50 µM | HL-60 > 50 µM | HOP-92 > 50 µM | M14 > 50 µM | MOLT-4 > 50 µM | NCI-H23 > 50 µM | NCI-H522 > 50 µM | OVCAR-3 > 50 µM | OVCAR-8 > 50 µM | SF-268 > 50 µM | SF-539 > 50 µM | SK-MEL-28 > 50 µM | SK-MEL-5 > 50 µM | SK-OV-3 > 50 µM

O=C1OC(c2ccccc2)=N/C1=C\c1ccc2ccccc2c1
inactive: ACHN > 100 µM | CCRF-CEM > 100 µM | HOP-92 > 100 µM | M14 > 100 µM | MOLT-4 > 100 µM | NCI-H23 > 100 µM | NCI-H522 > 100 µM | OVCAR-3 > 100 µM | OVCAR-8 > 100 µM | SF-268 > 100 µM | SF-539 > 100 µM | SK-MEL-28 > 100 µM | SK-MEL-5 > 100 µM | SK-OV-3 > 100 µM

CC(=O)OC1CCn2nnc(CO[Si](C)(C)C(C)(C)C)c21 (stereo unspecified)
inactive: ACHN > 100 µM | M14 > 100 µM | MOLT-4 > 100 µM | NCI-H23 > 100 µM | NCI-H522 > 100 µM | OVCAR-3 > 100 µM | OVCAR-8 > 100 µM | SF-539 > 100 µM | SK-MEL-28 > 100 µM | SK-MEL-5 > 100 µM | SK-OV-3 > 100 µM

O=C1CC2CCN(C(=O)c3ccccc3)CC2CCN1 (stereo unspecified)
inactive: ACHN > 100 µM | CCRF-CEM > 100 µM | HL-60 > 100 µM | HOP-62 > 100 µM | HOP-92 > 100 µM | M14 > 100 µM | MOLT-4 > 100 µM | NCI-H23 > 100 µM | OVCAR-3 > 100 µM | OVCAR-8 > 100 µM | SF-268 > 100 µM | SF-539 > 100 µM | SK-MEL-28 > 100 µM | SK-MEL-5 > 100 µM | SK-OV-3 > 100 µM

N=C(N)NNC(=O)CCn1[nH]c(=O)c(Cl)c(Cl)c1=O
inactive: ACHN > 100 µM | CCRF-CEM > 100 µM | HL-60 > 100 µM | HOP-62 > 100 µM | M14 > 100 µM | MOLT-4 > 100 µM | NCI-H23 > 100 µM | NCI-H522 > 100 µM | OVCAR-3 > 100 µM | OVCAR-8 > 100 µM | SF-268 > 100 µM | SF-539 > 100 µM | SK-MEL-28 > 100 µM | SK-MEL-5 > 100 µM | SK-OV-3 > 100 µM
